Data from patent US6969583B2, “Method for detecting variant HBV” (Melbourne Health, priority 2000, dated 2005).
Like-named read-outs stand apart in the source and are kept apart here.

Tests used:
Assay type in all cases: cell-based, Hepatitis B virus
[1] = tested on: wild-type HBV baculovirus; assay: Antiviral testing with wild-type HBV baculovirus in HepG2 cells (Example 15, Southern blot densitometry); settings: for inhibition at 1 µM / IC50: Hepatitis B virus, wt HBV; for inhibition at 1 µM: HepG2, ds HBV DNA band density vs untreated controls, estimated from fitted curve, negative = stimulation of replication; for IC50: ds HBV DNA bands, HepG2 cells
Method: (§1) HepG2 cells were seeded at approximately 20-40% confluency and then were grown for 16-24 hours before infection. On the day of infection, triplicate plates of cells were trypsinized, and viable cell number was determined with a hemocytometer using Trypan blue exclusion. Average cell counts were calculated and used to determine the volume of high-titer viral stock necessary to infect cells at the indicated moi. HepG2 cells were washed one time with serum-free MEM to remove traces of serum. Baculovirus was diluted into MEM without serum to achieve the appropriate moi using volumes of 1.0, 0.5, and 0.25 ml to infect 100-mm, 60 mm, and 35-mm dishes, respectively. Baculovirus was adsorbed to HepG2 cells for one hour at 37° C. with gentle rocking every 15 minutes to ensure that the inoculum was evenly distributed. The inoculum was then aspirated and HepG2 cells were washed two times with phosphate-buffered saline and refed MEM-FBS with or without various concentrations of agents.
(§2) HBV core particles were isolated from the cytoplasmic fraction of HepG2 cells lysed in 0.5% w/v NP-40. Cytoplasmic extracts were adjusted to 10 mmol/l McC12 and unprotected DNA was removed by an incubation to […] for 1.5 hours at 37° C. Following sequential phenol and chloroform extractions, nucleic acids were recovered by ethanol precipitation. Nucleic acids were resuspended in 50 μl/l TE (10 mmol/l Tris, 1 mmol/l ethylenedianinetetraacetic acid), normalized by OD260, and digested with 100 μg/ml RNase (Boehringer Mannheim, Indianapolis, Ind.) for one hour at 37° C. before analysis by electrophoresis and Southern blotting. A BioRad GS-670 imaging densitometer and the Molecular Analyst software (BioRad, Hecules Calif.) was used to analyze suitable exposures of Southern blots. Densitometry data was fitted to logistic dose response curves using the TableCurve2D software package from Jandel Scientific. Logistic dose response equations were used to calculate IC50 and IC90 values and co-efficients of variation.
(§3) 3TC and PCV were a gift from Klaus Esser, SmithKline Beecham, Collegeville, Pa. PMEA was obtained from Gilead (Foster City, Calif.). 3TC was resuspended in sterile water, aliquoted, and frozen at −20° C. to avoid repeated freezing and thawing of the drug. PMEA was resuspended in sterile water after the pH was adjusted to 7.0 with NaOH. PCV was resuspended in dimethyl sulphoxide. Medium containing 3TC was prepared daily as needed using fresh aliquots of 3TC. In experiments in which 3TC treatment was initiated after viral infection, HepG2 cells were exposed to the indicated concentration of 3TC immediately after infection with HBV baculovirus. In experiments utilizing pretreatment with 3TC, cells were fed medium containing 3TC 16 hours prior to HBV baculovirus infection, HBV baculovirus infection was also carried out in medium containing 3TC, and cells were refed fresh medium containing 3TC immediately after completion of the infection and washing procedures. Treatment with PMEA and PCV were conducted in a similar manner.
The dose effect of 3TC and PMEA, on wild-type HBV is shown graphically in FIG. 6 (A, B,) and a Southern Blot of intracellular HBV replicative intermediates and extracellular virus produced by HepG2 cells transduced with wild-type HBV-baculovirus in the presence of increasing concentrations of PCV is shown in FIG. 6C and the IC50 for each antiviral agent is shown in Table 2.

[2] = tested on: L526M/M550V HBV baculovirus; assay: Antiviral testing with L526M/M550V HBV baculovirus in HepG2 cells (Example 15); settings: for change in sensitivity of L526M/M550V: FIG. 8A-8C, result in words; for inhibition at 1 µM / IC50: Hepatitis B virus, dual (L526M/M550V) HBV; for inhibition at 1 µM: HepG2, ds HBV DNA band density vs untreated controls, estimated from fitted curve, negative = stimulation; for IC50: ds HBV DNA bands, HepG2 cells
Method: as §1, §2, §3

[3] = tested on: L526M/M550V recombinant HBV-baculovirus; assay: Antiviral testing, L526M/M550V recombinant HBV-baculovirus in HepG2 cells (Example 17); settings: NDR = no dose response
Method: as §1
(§4) HBV core particles were isolated from the cytoplasmic fraction of HepG2 cells lysed in 0.5% w/v NP-40. […]
(§5) Conditioned medium was collected from HepG2 cells and subjected to centrifugation at 6,000 g for five minutes to remove cellular debris. […] DNA was then analyzed by electrophoresis and Southern blotting. […]

[4] = tested on: M550I recombinant HBV-baculovirus; assay: Antiviral testing, M550I recombinant HBV-baculovirus in HepG2 cells (Example 17); settings: NDR = no dose response
Method: as §1, §4, §5

[5] = tested on: wild-type (WT) recombinant HBV-baculovirus; assay: Antiviral testing, wild-type (1.3x genomic length) recombinant HBV-baculovirus in HepG2 cells (Example 17)
Method: as §1, §2
(§6) Conditioned medium was collected from HepG2 cells and subjected to centrifugation at 6,000 g for five minutes to remove cellular debris. HBV particles were precipitated with 10% w/v PEG 8000 and were concentrated by centrifugation at 12,000 ×g. Viral pellets were resuspended us 1 ml of MEM-FBS and divided into two aliquots. One set of aliquots was treated with 750 μg/ml Pronase for one hour and then with […] DNase 1 for one hour. Both sets of aliquots were then digested with Proteinase K, and extracted with phenol and chloroform. DNA was precipitated with 0.1 volume of 3 mol/l sodium acetate and 1 volume of isopropanol. Ten micrograms of transfer RNA was added as a carrier during precipitation. Pellets were resuspended in 25 μl of TE and digested with 0.5 mg/ml RNase for one hour. DNA was then analyzed by electrophoresis and Southern blotting.
as §3

[6] = tested on: Precore/L526M/M550V recombinant HBV-baculovirus; assay: Antiviral testing, Precore/L526M/M550V recombinant HBV-baculovirus in HepG2 cells (Example 17); settings: NDR = no dose response; for IC50: Hepatitis B virus
Method: as §1, §2
as §6, with “Pellets were resuspended in 25 μl of TE and digested with 0.5 mg/ml RNase for one hour.” left out, “blotting. […]” for “blotting.”

[7] = tested on: precore (G1896A) recombinant HBV-baculovirus; assay: Antiviral testing of the precore mutant (G1896A) HBV baculovirus in HepG2 cells (Example 17); settings: for sensitivity of G1896A HBV compared with wild type HBV: result in words
Method: as §1, §2, §6, §3

[8] = tested on: Precore/M550I recombinant HBV-baculovirus; assay: Antiviral testing, Precore/M550I recombinant HBV-baculovirus in HepG2 cells (Example 17); settings: NDR = no dose response; for IC50: Hepatitis B virus
Method: as §1, §2
as §6, with “Pellets were resuspended in 25 μl of TE and digested with 0.5 mg/ml RNase for one hour.” left out, “blotting. […]” for “blotting.”

[9] = tested on: M550I HBV baculovirus; assay: Antiviral testing with M550I HBV baculovirus in HepG2 cells (Example 15); settings: for inhibition at 1 µM / IC50: Hepatitis B virus, 550 (M550I) HBV; for inhibition at 1 µM: ds HBV DNA band density vs untreated controls, estimated from fitted curve, negative = stimulation; for IC50: ds HBV DNA bands
Method: as §1, §2, §3

[10] = tested on: L526M HBV baculovirus; assay: Antiviral testing with L526M HBV baculovirus in HepG2 cells (Example 15); settings: for change in sensitivity of L526M compared to wild-type: FIG. 7A-7C, result in words; for inhibition at 1 µM / IC50: Hepatitis B virus
Method: as §1, §2, §3

[11] = tested on: any HBV/baculovirus variant encoding the mutations at M550I or L526M/M550V; assay: Southern blots of HBV DNA from HepG2 cells transduced with lamivudine-resistant recombinant HBV-baculovirus variants (Example 17); settings: intracellular and extracellular HBV DNA, no dose response could be plotted
Method: as §1, §4, §5

[12] = Hepatitis B virus, HepG2, intracellular single-stranded HBV DNA, read-out: IC50 (μM), IC SS
[13] = Hepatitis B virus, HepG2, WT, extracellular relaxed circular HBV DNA, averages where footnoted, read-out: IC50 (μM), EC RC
[14] = Hepatitis B virus, HepG2, WT, intracellular single-stranded HBV DNA, averages where footnoted, read-out: IC50 (μM), IC SS
[15] = HepG2, extracellular relaxed circular HBV DNA, read-out: IC50 (μM), EC RC
[16] = HepG2, intracellular single-stranded HBV DNA, read-out: IC50 (μM), IC SS
[17] = Hepatitis B virus, HepG2, Precore (G1896A), extracellular relaxed circular HBV DNA, averages where footnoted, read-out: IC50 (μM), EC RC
[18] = Hepatitis B virus, HepG2, Precore (G1896A), intracellular single-stranded HBV DNA, averages where footnoted, read-out: IC50 (μM), IC SS
[19] = intracellular single-stranded HBV DNA
[20] = extracellular relaxed circular HBV DNA

Row | Structure (SMILES) | inhibition at 1 µM [1] [%] | IC50 [1] [µM] | Resistance Factor [1] | change in sensitivity of L526M/M550V [2] | inhibition at 1 µM [2] [%] | IC50 [2] [µM] | Resistance Factor [2] | IC50 [5, 13] [µM] | IC50 [5, 14] [µM] | IC50 [7, 17] [µM] | IC50 [7, 18] [µM] | sensitivity of G1896A HBV compared with wild type HBV [7] | inhibition at 1 µM ([9]; HepG2) [%] | Resistance Factor [9] | change in sensitivity of L526M compared to wild-type [10] | other results
1 | Nc1ncnc2c1ncn2CCOCP(=O)(O)O [Adefovir, 9-(2-phosphonylmethoxyethyl)adenine] | 91.6 | 0.08 | 1 | no substantial change | 77 | 0.16 | 2 | 0.0535 | 0.235 | 0.025 | 0.195 | at least as sensitive | 70 | 4 | No significant change | IC50 [3, 12]: 0.93 µM; IC50 [4, 12]: 0.94 µM; IC50 ([5]; Hepatitis B virus, HepG2, WT, extracellular relaxed circular HBV DNA, individual experiments behind the average, read-out: IC50, single experiments, EC RC): 0.06 µM; IC50 ([5]; Hepatitis B virus, HepG2, WT, intracellular single-stranded HBV DNA, individual experiments behind the average, read-out: IC50, single experiments, IC SS): 0.25 µM; IC50 ([5]; WT, extracellular relaxed circular HBV DNA, individual experiments behind the average, read-out: IC50, single experiments, EC RC): 0.047 µM; IC50 ([5]; WT, intracellular single-stranded HBV DNA, individual experiments behind the average, read-out: IC50, single experiments, IC SS): 0.22 µM; IC50 [6, 15]: 1 µM; IC50 [6, 16]: 0.47 µM; IC50 ([7]; Hepatitis B virus, HepG2, Precore (G1896A), extracellular relaxed circular HBV DNA, individual experiments behind the average, read-out: IC50, single experiments, EC RC): 0.02 µM; IC50 ([7]; Hepatitis B virus, HepG2, Precore (G1896A), intracellular single-stranded HBV DNA, individual experiments behind the average, read-out: IC50, single experiments, IC SS): 0.2 µM; IC50 ([7]; Precore (G1896A), extracellular relaxed circular HBV DNA, individual experiments behind the average, read-out: IC50, single experiments, EC RC): 0.03 µM; IC50 ([7]; Precore (G1896A), intracellular single-stranded HBV DNA, individual experiments behind the average, read-out: IC50, single experiments, IC SS): 0.19 µM; IC50 [8, 15]: 0.09 µM; IC50 [8, 16]: 0.28 µM; IC50 ([9]; HepG2 cells, read-out: IC50): 0.31 µM; inhibition at 1 µM ([10]; HepG2, 526 (L526M) HBV, ds HBV DNA band density vs untreated controls, estimated from fitted curve, negative = stimulation, read-out: Inhibition at 1 μM): 86.2%; IC50 ([10]; 526 (L526M) HBV, ds HBV DNA bands, HepG2 cells, read-out: IC50): 0.09 µM; Resistance Factor ([10]; {}): 1
2 | Nc1nc2c(ncn2CCC(CO)CO)c(=O)[nH]1 [Penciclovir, 9-[4-hydroxy-3-(hydroxymethyl)but-1-yl]guanine] | 7 | 11.5 | 1 | no substantial change | -10 | 370 | 32 | 23 | 226 | 6 | 85 | may be more sensitive | -24 | 106 | No significant change | effect on wild-type HBV replication ([1]; dose effect, FIG. 6, result in words): modest effect; IC50 (μM), IC SS [3, 19]: NDR; IC50 (μM), IC SS [4, 19]: NDR; IC50 (μM), EC RC [6, 20]: NDR; IC50 (μM), IC SS [6, 19]: NDR; IC50 (μM), EC RC [8, 20]: NDR; IC50 (μM), IC SS [8, 19]: NDR; IC50 ([9]; HepG2, extrapolated value, read-out: IC50 (μM), extrapolated value): 1220 µM; resistance conferred by M550I or L526M/M550V changes [11]: high degree of resistance; Resistance Factor ([10]; 526 (L526M) HBV, mutant IC50 divided by wt IC50, nearest integer): 9; IC50 ([10]; HepG2): 103 µM; inhibition at 1 µM ([10]; HepG2, read-out: Inhibition at 1 μM): -3%
